Here are results for ten molecules from patent US20260132125A1, “PESTICIDALLY ACTIVE FUSED BICYCLIC HETEROAROMATIC COMPOUNDS” (priority 2022, published 2026).

Holding throughout (assay type): in vivo
Assay [1] concerns Myzus persicae. The assay is described as follows: Example B4: activity against Myzus persicae (green peach aphid), intrinsic activity. The settings on record: 120 h, test rate 12 ppm, 5 days after infestation. The essentials:
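Mortality was read 5 days after infestation. Aphids on pea seedlings fed through a stretched Parafilm membrane on inverted 24-well plates containing sucrose solution mixed with test compound, which was diluted from 10′000 ppm DMSO stock.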

Assay [2] relates to Spodoptera littoralis. Description: Example B6: activity against Spodoptera littoralis (Egyptian cotton leaf worm), cotton leaf discs. The note with it: foliar, 72 h, 200 ppm, L1 larvae, 3 days after infestation, read-out: control (at least one of mortality, anti-feedant effect, growth inhibition). The essentials:
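Read-out: mortality, feeding deterrence and growth inhibition, assessed 3 days after infestation relative to untreated samples. Sprayed, dried cotton leaf discs on agar each received five first-instar (L1) larvae; sprays were aqueous solutions prepared from 10′000 ppm DMSO stocks.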

In assay [3] the test system is Plutella xylostella. The assay is described as follows: Example B5: activity against Plutella xylostella (diamond back moth), artificial diet, eggs. The note with it: 192 h, 8 days after infestation, read-out: effect in at least one of the two categories (mortality or growth inhibition). In short, it runs like this:
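Scoring at 8 days post-infestation compared mortality and growth inhibition with untreated controls, on diet treated at 200 ppm with water-diluted DMSO stock solutions. Diamondback moth eggs were placed on the dried diet in 24-well plates.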

Assay [4] relates to Myzus persicae. The assay is described as follows: Example B7a: Myzus persicae feeding/contact activity, sunflower leaf discs. The settings on record: foliar, 144 h, mixed ages, 6 days after infestation. On the procedure:
Sunflower leaf discs were placed onto agar in a 24-well microtiter plate and sprayed with aqueous test solutions prepared from 10′000 ppm DMSO stock solutions. After drying, the leaf discs were infested with an aphid population of mixed ages. The samples were assessed for mortality 6 days after infestation.

Assay [5] concerns Euschistus heros. Description: Example B3: activity against Euschistus heros (neotropical brown stink bug), soybean leaves. The note with it: for percent effect (mortality or growth inhibition) at 200 ppm: 120 h, N2 nymphs, 5 days after infestation, read-out: effect in at least one of the two categories (mortality or growth inhibition). On the procedure:
Soybean leaves on agar in 24-well microtiter plates were sprayed with aqueous test solutions prepared from 10′000 ppm DMSO stock solutions. After drying the leaves were infested with N2 nymphs. The samples were assessed for mortality and growth inhibition in comparison to untreated samples 5 days after infestation. The following compounds gave an effect of at least 80% in at least one of the two categories (mortality or growth inhibition) at an application rate of 200 ppm: […]

Assay [6] deals with Chilo suppressalis. Description: Example B1: activity against Chilo suppressalis (striped rice stemborer), artificial diet. The settings on record: 144 h, 200 ppm, L2 larvae, 6 days after infestation, read-out: control (at least one of mortality, anti-feedant effect, growth inhibition). In short, it runs like this:
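Artificial diet in wells was treated with aqueous test solutions diluted from 10'000 ppm DMSO stocks, dried, then infested with 6-8 L2 larvae per well. Mortality, anti-feeding effect and growth inhibition were scored against untreated samples 6 days after infestation; control means any category exceeds the untreated sample.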

The test system of assay [7] is Diabrotica balteata. The assay is described as follows: Example B2: activity against Diabrotica balteata (corn root worm), maize sprouts. The settings on record: 96 h, L2 larvae, 4 days after infestation, read-out: effect in at least one of the two categories (mortality or growth inhibition). The essentials:
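At 200 ppm, test solutions diluted in water from 10′000 ppm DMSO stocks were spray-applied to maize sprouts set on agar. Once dry, each well received 6–10 second-instar larvae. Four days later, mortality and growth inhibition were compared with untreated controls.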

Assay [8] deals with Carpocapsa (Cydia) pomonella. The assay is described as follows: Example B10: Carpocapsa (Cydia) pomonella (codling moth), larvicide, feeding/contact, diet cubes. The note with it: 336 h, L1 larvae, 14 days after infestation, read-out: effect in at least one of the two categories (mortality or growth inhibition). On the procedure: Diet cubes coated with paraffin were sprayed with diluted test solutions in an application chamber. After drying off the treated cubes (10 replicates) were infested with 1 L1 larvae. Samples were incubated at 26-27° C. and checked 14 days after infestation for mortality and growth inhibition. The following compounds gave an effect of at least 80% in at least one of the two categories (mortality or growth inhibition) at an application rate of 50 ppm: […]

Assay [9] relates to Pseudoplusia includens. The assay is described as follows: Example B9: Pseudoplusia includens (soybean looper), larvicide, feeding/contact, soybean plants. The settings on record: Chrysodeixis includens; for percent effect (mortality or growth inhibition) at 50 ppm: 120 h, L2 larvae, 5 days after infestation, read-out: effect in at least one of the two categories (mortality or growth inhibition). The essentials: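 Soybean plants sprayed, cut and held in dishes on wet filter paper; infested 1 d after application with 5 L2 larvae. Mortality and growth inhibition assessed 5 days after infestation; tested at 50 ppm.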

For assay [10], the system named is Plutella xylostella. Description: B14b: Plutella xylostella (diamond back moth), larvicide L3, feeding/contact, Chinese cabbage. An excerpt:
Activity of compounds P5, P17 and P21 according to the preparatory examples and of a compound from WO 21/083936 against Spodoptera littoralis (Example B6 above), Chilo suppressalis (Example B1 above), Diabrotica balteata (Example B14a below), Plutella xylostella (Example B14b below) and Pseudoplusia includens (Example B9 above) is summarized in Table B14. B14a: Diabrotica balteata (Corn root worm). Larvicide, feeding/contact 3 Corn seedlings were placed on wetted filter paper in plastic cups, and 3 ml of diluted test solutions were pipetted onto them. The cups were infested with 10 L2 larvae and checked for mortality and growth regulation 5 days after treatment. B14b: Plutella xylostella (Diamond back moth). Larvicide L3, feeding/contact Chinese cabbage plants were sprayed with diluted test solutions in an application chamber. Cut off leaves were placed into petri dishes with wetted filter paper and infested 1 day after application with 10 L3 larvae. Samples were assessed 4 days after infestation for mortality and growth regulation.

Structures are written as SMILES.

`CNC(=O)c1cc(-n2ncnc2[C@H](C)N(C)c2ncnc3c(C(F)(F)F)cc(Cl)cc23)ncn1` [Compound P9, 6-[5-[(1S)-1-[[6-chloro-8-(trifluoromethyl)quinazolin-4-yl]-methyl-amino]ethyl]-1,2,4-triazol-1-yl]-N-methyl-pyrimidine-4-carboxamide] registered a mortality at 12 ppm in assay [1] of at least 80%. For the same molecule, the percent control (mortality, anti-feedant effect or growth inhibition) at 200 ppm in [2] and in assay [6] was at least 80% throughout. Also, the percent effect (mortality or growth inhibition) at 200 ppm in assay [3], in assay [5] and in assay [7] was at least 80% in each case. The molecule also had a mortality at 200 ppm in assay [4] of at least 80%. For the same molecule, the percent effect (mortality or growth inhibition) at 50 ppm in [8] and in [9] was at least 80% throughout.

`C[C@H](Nc1ncnc2c(I)cc(Cl)cc12)c1ncnn1-c1ncc(C(N)=O)s1` [Compound P29, 2-[5-[(1S)-1-[(6-chloro-8-iodo-quinazolin-4-yl)amino]ethyl]-1,2,4-triazol-1-yl]thiazole-5-carboxamide] returned a mortality at 12 ppm in assay [1] of at least 80%. Moreover, the percent control (mortality, anti-feedant effect or growth inhibition) at 200 ppm in assay [2] and in assay [6] was at least 80% in each case. The percent effect (mortality or growth inhibition) at 200 ppm in [3] and in assay [7] was at least 80% each time. In assay [4], the mortality at 200 ppm was at least 80%.

In the case of `C[C@@H](c1ncnn1-c1cc(C(=O)NCCC#N)ncn1)N(C)c1ncnc2c(C(F)(F)F)cc(Cl)cc12` [Compound P53, 6-[5-[(1S)-1-[[6-chloro-8-(trifluoromethyl)quinazolin-4-yl]-methyl-amino]ethyl]-1,2,4-triazol-1-yl]-N-(2-cyanoethyl)pyrimidine-4-carboxamide], in assay [1], the mortality at 12 ppm was at least 80%. Besides, the percent control (mortality, anti-feedant effect or growth inhibition) at 200 ppm in assay [2] and in assay [6] was at least 80% in each case. In addition, the percent effect (mortality or growth inhibition) at 200 ppm in assay [3] and in [7] was at least 80% in each case. Also, the percent effect (mortality or growth inhibition) at 50 ppm in assay [8] and in assay [9] was at least 80% each time.

In assay [1], `C[C@H](Nc1ncnc2c(Cl)cc(I)cc12)c1ncnn1-c1cc(C(N)=O)ncn1` [Compound P2, 6-[5-[(1S)-1-[(8-chloro-6-iodo-quinazolin-4-yl)amino]ethyl]-1,2,4-triazol-1-yl]pyrimidine-4-carboxamide] displayed a mortality at 12 ppm of at least 80%. Also, the percent control (mortality, anti-feedant effect or growth inhibition) at 200 ppm in [2] and in assay [6] was at least 80% throughout. For the same molecule, the percent effect (mortality or growth inhibition) at 200 ppm in [3] and in [7] was at least 80% in each case. Moreover, the mortality at 200 ppm in assay [4] was at least 80%. Further, the percent effect (mortality or growth inhibition) at 50 ppm in assay [8] and in [9] was at least 80% each time.

For `CNC(=O)c1cc(-n2ncnc2[C@H](C)Nc2ncnc3c(I)cc(Cl)cc23)ncn1` [Compound P14, 6-[5-[(1S)-1-[(6-chloro-8-iodo-quinazolin-4-yl)amino]ethyl]-1,2,4-triazol-1-yl]-N-methyl-pyrimidine-4-carboxamide], the mortality at 12 ppm in assay [1] was at least 80%. Moreover, the percent control (mortality, anti-feedant effect or growth inhibition) at 200 ppm in assay [2] and in assay [6] was at least 80% throughout. The percent effect (mortality or growth inhibition) at 200 ppm in [3] and in assay [7] was at least 80% each time. The mortality at 200 ppm in [4] was at least 80%. In [9], the percent effect (mortality or growth inhibition) at 50 ppm is at least 80%.

Molecule `C[C@H](Nc1ncnc2c(C(F)(F)F)cc(I)cc12)c1ncnn1-c1cc(C(N)=O)ncn1` [Compound P1, 6-[5-[(1S)-1-[[6-iodo-8-(trifluoromethyl)quinazolin-4-yl]amino]ethyl]-1,2,4-triazol-1-yl]pyrimidine-4-carboxamide] returned a mortality at 12 ppm in assay [1] of at least 80%. The percent control (mortality, anti-feedant effect or growth inhibition) at 200 ppm in assay [2] and in assay [6] was at least 80% throughout. Moreover, the percent effect (mortality or growth inhibition) at 200 ppm in assay [3], in [5] and in [7] was at least 80% throughout. Besides, the percent effect (mortality or growth inhibition) at 50 ppm in [8] and in [9] was at least 80% each time.

The molecule `C[C@H](Nc1ncnc2c(Cl)cc(C(F)(F)F)cc12)c1ncnn1-c1ncccn1` [WO 21/083936 P.18, reference compound] came in with a mortality at 200 ppm in [5] of 0%. The molecule further yielded a mortality at 0.8 ppm in assay [10] of 65%. The mortality at 3 ppm in assay [9] (Pseudoplusia includens) is 40%.

Turning to `C[C@H](Nc1ncnc2c(Br)cc(Br)cc12)c1ncnn1-c1cc(C(N)=O)ncn1` [Compound P10, 6-[5-[(1S)-1-[(6,8-dibromoquinazolin-4-yl)amino]ethyl]-1,2,4-triazol-1-yl]pyrimidine-4-carboxamide], the mortality at 12 ppm in assay [1] is at least 80%. The percent control (mortality, anti-feedant effect or growth inhibition) at 200 ppm in assay [2] and in assay [6] was at least 80% throughout. Moreover, the percent effect (mortality or growth inhibition) at 200 ppm in assay [3] and in [7] was at least 80% in each case. Further, the mortality at 200 ppm in assay [5] was found to be 0%. Moreover, the mortality at 3 ppm came out at 100% in assay [10] (3 ppm) and 80% in [9] (Pseudoplusia includens). The percent effect (mortality or growth inhibition) at 50 ppm in [8] and in assay [9] was at least 80% each time.

In the case of `CNC(=O)c1cc(-n2ncnc2[C@H](C)Nc2ncnc3c(C(F)(F)F)cc(Cl)cc23)ncn1` [Compound P3, 6-[5-[(1S)-1-[[6-chloro-8-(trifluoromethyl)quinazolin-4-yl]amino]ethyl]-1,2,4-triazol-1-yl]-N-methyl-pyrimidine-4-carboxamide], the mortality at 12 ppm in assay [1] was at least 80%. Moreover, the percent control (mortality, anti-feedant effect or growth inhibition) at 200 ppm in [2] and in assay [6] was at least 80% throughout. The percent effect (mortality or growth inhibition) at 200 ppm in [3], in [5] and in assay [7] was at least 80% in each case. Further, the percent effect (mortality or growth inhibition) at 50 ppm in assay [8] and in assay [9] was at least 80% each time.

On to `C[C@H](Nc1ncnc2c(C(F)(F)F)cc(Cl)cc12)c1ncnn1-c1ncccn1` [WO 21/083936 P.24, reference compound], for which the mortality at 200 ppm in assay [5] came out at 0%. The mortality at 0.8 ppm came to 5% in [10] and 0% in assay [9] (Pseudoplusia includens, 0.8 ppm).
